Entries after “also recorded” stand apart in the source; their conditions may differ.
Tests used:
Type in all cases: cell-based, human
[1] = test system: eIF2alpha phosphorylation; experiment: Western blot of eIF2alpha phosphorylation upon thapsigargin ER stress induction; conditions: three hour TG exposure
Description: Cells were harvested at 50-70% confluency, pelleted by centrifugation, and dissolved in RIPA buffer (10 mM Tris/HCl (pH 7.5), 1 mM EDTA, 1% Triton X-100, 0.1% SDS, 0.1% sodium deoxycholate, 100 mM NaCl) supplemented with protease inhibitors (2 mM PMSF and 1× Complete Mini, Roche). Supernatants were collected, protein concentrations were determined using the BCA assay (Pierce/Thermo Scientific), and proteins were separated in a 10% SDS-polyacrylamide gel. Western blotting followed standard protocols using nitrocellulose membranes (Amersham/GE Healthcare). Signal intensities were analyzed with ImageJ (http://rsb.info.nih.gov/ij/).
Antibodies used were: anti-BAF47 (SMARCB1/SNF5; BD Biosciences, San Diego, Calif.), anti-phospho-eIF2alpha (119A11; Cell Signaling), anti-beta actin-HRP (Abcam, Cambridge, UK).
The CHLA-02-ATRT cell line was obtained from ATCC and kept in neurosphere medium (DMEM/F12 (1:1) with Glutamax, B27, penicillin (100 units/mL), streptomycin (100 μg/mL; all from Invitrogen), HEPES (10 mmol/L), Partricin (0.5 μg/mL, Biochrom); insulin (20 μg/mL; Sigma Aldrich), recombinant human epidermal growth factor (EGF; 20 ng/mL), and rhFGFbasic (20 ng/mL; PAN Biotech)). The human malignant rhabdoid tumor cell line LM (provided by Rupert Handgretinger, Tuebingen, Germany) was kept according to Versteege et al. (Nature 1998). DAOY medulloblastoma cells (provided by Michael Grotzer, Zurich, Switzerland) were kept in EMEM (PAA) supplemented with 10% FBS (Biochrom), 2 mM glutamine, 100 units/mL Penicillin/Streptomycin (Invitrogen), and 2.5 μg/mL Amphotericin B (PAA). Hs683 glioma cell lines (provided by Matthias Simon, Bonn, Germany) were kept in DAOY medium with 1 mM sodium pyruvate, MEM non-essential amino acids, and MEM vitamin solution (all from Invitrogen). SW1783 glioblastoma cells (provided by Matthias Simon, Bonn, Germany) and BT12 AT/RT cells (provided by Michael Grotzer, Zurich, Switzerland) were kept in DMEM (1 g/l glucose) supplemented with 10% FBS (Biochrom), 2 mM glutamine, 100 units/ml Penicillin/Streptomycin (Invitrogen) and 2.5 μg/ml Amphotericin B (PAA).
MCF7-SNF5-KD#73 cells (Xu et al., 2010) were cultured in DMEM (4.5 g/L glucose, Invitrogen), 10% FBS (Tet System Approved, Clontech), 2 mM glutamine, and 100 units/mL Penicillin/Streptomycin (Invitrogen). For the knock-down of SMARCB1, tetracycline (1 μg/mL) was added on day 1 and 3, and cells harvested at day 4. At day 4, cells were treated with DTT (5 mM) or Thapsigargin (5 μM). 786-O and A-498 cells (both from Angelika Toelle, Charité Berlin, Germany), HepG2 cells (from Peter Nilsson-Ehle, Lund University, Sweden), and G401 (ATCC) were kept in RPMI1640 (PAA) supplemented with 10% FBS (Biochrom), 2 mM glutamine, 100 units/mL Penicillin/Streptomycin (Invitrogen), and 2.5 μg/mL Amphotericin B (PAA). A-204 (ATCC) were grown in McCoy's 5a modified medium supplemented with 10% FBS (Biochrom), 100 units/mL Penicillin/Streptomycin (Invitrogen), and 2.5 μg/mL Amphotericin B (PAA). All cells were kept in T75 tissue culture flasks (Techno Plastic Products).

BT12 cells = experiment: Apoptosis assay (Annexin V/7AAD flow cytometry) in brain AT/RT cell line; conditions: BT12 vs DMSO and vs SMARCB1-positive cell lines
Description: (§1) Similarly, G401, A498, 786-O, BT12, SW1783, and DAOY cells were plated into 6-well-plates (200,000 cells per well) and grown for 24 hours before 10 nM BTZ, 30 nM Carfilzomib (CFZ, from Active Biochemicals Co.), or DMSO as vehicle control was added to the cell culture media for another 24 hours. Subsequently, cells were carefully washed with PBS and dissociated by trypsinization. Aliquots of single cell suspensions containing 1×10^5 cells in 100 μL PBS were stained with AnnexinV-APC and 7AAD according to the manufacturer's instructions (BD Biosciences) for 15 min at RT. Subsequently, 400 μL of AnnexinV binding buffer was added (10 mM Hepes, 140 mM NaCl and 2.5 mM CaCl2), cell suspensions were placed on ice and immediately analyzed with a FACSCalibur flow cytometer (BD Biosciences). The data analysis was performed using the FlowJo software (Tree Star). For statistical analyses, an unpaired t-test was conducted using Prism 5.0 (GraphPad).

G401 cells = experiment: Apoptosis assay (Annexin V/7AAD flow cytometry) in kidney MRT cell line; conditions: G401 vs DMSO and vs SMARCB1-positive cell lines
Description: as §1

MCF7-SNF5-KD#73 cells = experiment: Apoptosis assay (Annexin V/7AAD flow cytometry) in tetracycline-induced SMARCB1 knock-down MCF7 cells; conditions: 10 nM for 12 hours; Tet-induced SMARCB1 knock-down vs non-induced MCF7 cells
Description: 500,000 MCF7-SNF5-KD#73 cells (Xu et al., 2010) were plated into T75 tissue culture flasks (Techno Plastic Products). For knockdown experiments, tetracycline (1 μg/mL) was added on day 1 and day 3. In case of Bortezomib (BTZ)-treated cells, the drug (Santa Cruz Biotechnology, final concentration 10 nM) was added for 12 hours on day 4 (at 70-85% confluency).
as §1

[2] = 10 nM BTZ for 24 hours, listed as BTZ

C/C=C(/C)C(=O)O[C@H]1C(C)=C2[C@H]([C@@H]1OC(=O)CCCCCCC)[C@@](C)(OC(C)=O)C[C@H](OC(=O)CCC)[C@@]1(O)[C@H]2OC(=O)[C@@]1(C)O [TG, Thapsigargin]
Fold-change of β-actin-normalized phosphorylated eIF2alpha signal intensities between TSG-treated and untreated cells ([1]; 786-O (SMARCB1-positive renal cell carcinoma)): 0.60
Fold-change of β-actin-normalized phosphorylated eIF2alpha signal intensities between TSG-treated and untreated cells ([1]; A-204 (MRT, muscle origin, lacking SMARCB1)): 1.39
Fold-change of β-actin-normalized phosphorylated eIF2alpha signal intensities between TSG-treated and untreated cells ([1]; A-498 (SMARCB1-positive renal cell carcinoma)): 1.12
Fold-change of β-actin-normalized phosphorylated eIF2alpha signal intensities between TSG-treated and untreated cells ([1]; CHLA2 (AT/RT, lacking SMARCB1)): 5.89
Fold-change of β-actin-normalized phosphorylated eIF2alpha signal intensities between TSG-treated and untreated cells ([1]; DAOY (SMARCB1-positive brain tumor)): 0.77
Fold-change of β-actin-normalized phosphorylated eIF2alpha signal intensities between TSG-treated and untreated cells ([1]; G401 (MRT, kidney origin, lacking SMARCB1)): 2.49
Fold-change of β-actin-normalized phosphorylated eIF2alpha signal intensities between TSG-treated and untreated cells ([1]; HepG2 (SMARCB1-positive hepatocellular carcinoma)): 0.56
Fold-change of β-actin-normalized phosphorylated eIF2alpha signal intensities between TSG-treated and untreated cells ([1]; Hs683 (SMARCB1-positive brain tumor)): 0.81
Fold-change of β-actin-normalized phosphorylated eIF2alpha signal intensities between TSG-treated and untreated cells ([1]; LM (MRT, liver origin, lacking SMARCB1)): 1.27
Fold-change of β-actin-normalized phosphorylated eIF2alpha signal intensities between TSG-treated and untreated cells ([1]; SW1783 (SMARCB1-positive brain tumor)): 0.75

CC(C)C[C@H](NC(=O)[C@H](CCc1ccccc1)NC(=O)CN1CCOCC1)C(=O)N[C@@H](Cc1ccccc1)C(=O)N[C@@H](CC(C)C)C(=O)[C@@]1(C)CO1 [Carfilzomib]
Apoptosis (Annexin V-positive and 7AAD-negative cells) (BT12 cells; 30 nM CFZ for 24 hours): highest apoptosis; also recorded: increased apoptosis
Apoptosis (Annexin V-positive and 7AAD-negative cells) (G401 cells; 30 nM CFZ for 24 hours): highest apoptosis; also recorded: increased apoptosis

CC(C)C[C@H](NC(=O)[C@H](Cc1ccccc1)NC(=O)c1cnccn1)B(O)O [Bortezomib, [(1R)-3-methyl-1-({(2S)-3-phenyl-2-[(pyrazin-2-ylcarbonyl)-amino]propanoyl}amino)butyl]boronic acid]
Apoptosis (Annexin V-positive and 7AAD-negative cells) (BT12 cells; 10 nM BTZ for 24 hours): increased apoptosis
Apoptosis (Annexin V-positive and 7AAD-negative cells) (BT12 cells; [2]): highest apoptosis
Apoptosis (Annexin V-positive and 7AAD-negative cells) (MCF7-SNF5-KD#73 cells): increased apoptosis
Apoptosis (Annexin V-positive and 7AAD-negative cells) (G401 cells; 10 nM BTZ for 24 hours): increased apoptosis
Apoptosis (Annexin V-positive and 7AAD-negative cells) (G401 cells; [2]): highest apoptosis

— patent publication US9429574B2, “Cancer therapies and methods” (priority 2011, dated 2016)
